According to US20080075767A1, “IBUPROFEN-CONTAINING LIQUID FILLED HARD CAPSULES” (priority 2006, published 2008):
Read-outs that look alike come from different tables or passages of the source.

How the values were obtained:
[1] = Ibuprofen lysinate vehicle screening; conditions: ibuprofen lysinate (IBL) in the excipient named; outcome in Comments cell beside
[2] = Excerpt: Different solvent systems such as oils and medium chain triglycerides, solubilizing agents, emulsifying agents (self-emulsifying) and surfactants for the liquid filled capsules were screened for their effectiveness in solubilizing ibuprofen and are listed in Tables 5 to 6.
The screening method involved the following steps:
2. Step T2: the sample was heated using a hot plate and stirrer to facilitate ibuprofen solubility in the vehicle and the samples were left overnight.
3. […] Additional ibuprofen was added by reheating selected T2 solutions until re-crystallization or precipitation was observed.
Observations on whether ibuprofen appeared as dissolved, a suspension (fine suspension) or crystallized (agglomerates) were reported.

[3] = Ibuprofen vehicle screening (single excipients); type: physicochemical; conditions: for Approx. Percentage of API that Resulted in Precipitate: ibuprofen USP in the excipient named, precipitate within approx. 24 h after cooling to room temperature, * = close to saturation point, only a few crystals
Experimental: Initially, ibuprofen United States Pharmacopeia grade (USP) powder was mixed at room temperature with individual excipients being considered as shown in Table 1. Ibuprofen was incrementally added and mixed until a precipitate was observed. […] Observations were made daily to determine if the mixture would remain a solution or precipitate out within an approximately 24 hour period.

[4] = Water activity (Rotronic Hygrolab); type: physicochemical; conditions: water activity at 19.56-19.87 °C

| Compound | Approximate Percentage of IBL salt added in powder form to excipient and heated [1] | Amt of API added [2] | Observation [2] | Approx. Percentage of API that Resulted in Precipitate [3] | AW Reading [4] | Amt of API added ([2]; 24 h) | Observation ([2]; 24 h) | Approx. Max. Percentage of API in Solution Tested ([3]; ibuprofen USP in the single excipient named, melted in on hot plate, remained in solution approx. 24 h) |
| --- | --- | --- | --- | --- | --- | --- | --- | --- |
| OCC(O)CO [Glycerin] | 2.2% | 250.0 mg | Turbid (T1) | 2.5% |  |  |  |  |
| O [Water] |  |  |  |  | 0.999 |  |  |  |
| Castor Oil |  | 257.8 mg | Solidify (T1) |  |  |  |  |  |
| CC(O)CO (stereo not drawn) [Propylene Glycol] | 2.4% |  |  | 28 * % |  | 4000.0 mg | Crystallized (T3) | 17% |
